Assay results as given in patent publication US7456201B2, “Pharmaceutically active compounds and methods of use” (Laboratoires Serono SA, priority 2000, dated 2008).

System: untransfected CHO parental cells
Assay: CHO parental cells assay (intracellular cAMP, RIA)
Type: cell-based, Chinese Hamster
Conditions: tested on untransfected CHO parental cells
Protocol: Briefly CHO parental cells were plated in 96 well packard view plates 5×10^4 cells/well in serum containing media. […] The wells were washed with serum free assay medium (containing 0.1 mM MIX) and pre-incubated for 15 minutes in this medium. Compound 1 and forskolin (positive control) were added and the cells were incubated for an additional one hour. The cells were lysed and intracellular cAMP was measured using the Amersham direct one step cAMP-RIA kit according to the manufacturers directions.

Which hFSHR specificity does the source give for `CC(C)(C)c1ccc(-n2nc(-c3cccnc3)cc2CCCCC(=O)NC(Cc2ccc(O)cc2)C(N)=O)cc1` (stereo not shown) [Compound 1-B, N-(5-[1-(4-tert-butylphenyl)-3-pyridin-3-yl-1H-pyrazol-5-yl]pentanoyl)tyrosinamide] here?
Its hFSHR specificity is “hFSHR specific”.
